{"source": "ChEMBL document CHEMBL1201862", "about": "“PubChem BioAssay data set” (2004)", "assay_in_all_cases": "NCI anticancer screen, dose series, 48 h", "key": {"A549": {"test_system": "A549"}, "CCRF-CEM": {"test_system": "CCRF-CEM"}, "COLO 205": {"test_system": "COLO 205"}, "HOP-92": {"test_system": "HOP-92"}, "M14": {"test_system": "M14"}, "MOLT-4": {"test_system": "MOLT-4"}, "NCI-H23": {"test_system": "NCI-H23"}, "NCI-H522": {"test_system": "NCI-H522"}, "OVCAR-3": {"test_system": "OVCAR-3"}, "OVCAR-8": {"test_system": "OVCAR-8"}, "RXF 393": {"test_system": "RXF 393"}, "SF-295": {"test_system": "SF-295"}, "SK-MEL-28": {"test_system": "SK-MEL-28"}, "SK-OV-3": {"test_system": "SK-OV-3"}, "SNB-19": {"test_system": "SNB-19"}, "UACC-257": {"test_system": "UACC-257"}, "UO-31": {"test_system": "UO-31"}, "NCI/ADR-RES": {"test_system": "NCI/ADR-RES"}, "PC-3": {"test_system": "PC-3"}}, "note": "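Assay format: 96-well plates, 48-hour exposure. GI50: concentration for 50% inhibition of growth.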 Calls of active or inactive are those of the source. Rule as the data show it: active = GI50 up to about 1.1 µM and inactive = higher.", "data": [{"smiles": "O=C(c1ccco1)N(C(=S)N1CCN(c2ccccc2)CC1)C1CCCCC1", "values": [{"measurement": "GI50", "setting": "A549", "result": "67.1 µM (inactive)"}, {"measurement": "GI50", "setting": "CCRF-CEM", "result": "> 100 µM (inactive)"}, {"measurement": "GI50", "setting": "COLO 205", "result": "45 µM (inactive)"}, {"measurement": "GI50", "setting": "HOP-92", "result": "> 100 µM (inactive)"}, {"measurement": "GI50", "setting": "M14", "result": "98.4 µM (inactive)"}, {"measurement": "GI50", "setting": "MOLT-4", "result": "> 100 µM (inactive)"}, {"measurement": "GI50", "setting": "NCI-H23", "result": "> 100 µM (inactive)"}, {"measurement": "GI50", "setting": "NCI-H522", "result": "> 100 µM (inactive)"}, {"measurement": "GI50", "setting": "OVCAR-3", "result": "> 100 µM (inactive)"}, {"measurement": "GI50", "setting": "OVCAR-8", "result": "> 100 µM (inactive)"}, {"measurement": "GI50", "setting": "RXF 393", "result": "52.6 µM (inactive)"}, {"measurement": "GI50", "setting": "SF-295", "result": "79.8 µM (inactive)"}, {"measurement": "GI50", "setting": "SK-MEL-28", "result": "> 10 µM (inactive)"}, {"measurement": "GI50", "setting": "SK-OV-3", "result": "> 100 µM (inactive)"}, {"measurement": "GI50", "setting": "SNB-19", "result": "> 100 µM (inactive)"}, {"measurement": "GI50", "setting": "UACC-257", "result": "72.4 µM (inactive)"}, {"measurement": "GI50", "setting": "UO-31", "result": "33.3 µM (inactive)"}]}, {"smiles": "CC(=O)OC(CC1(C)C(C)CCC23COC(=O)C2=CCCC31)c1ccoc1", "note": "(stereo unspecified)", "values": [{"measurement": "GI50", "setting": "A549", "result": "31.6 µM (inactive)"}, {"measurement": "GI50", "setting": "CCRF-CEM", "result": "20.2 µM (inactive)"}, {"measurement": "GI50", "setting": "COLO 205", "result": "40.4 µM (inactive)"}, {"measurement": "GI50", "setting": "HOP-92", "result": "26.2 µM (inactive)"}, {"measurement": "GI50", "setting": "M14", "result": "16.3 µM (inactive)"}, {"measurement": "GI50", "setting": "MOLT-4", "result": "19.5 µM (inactive)"}, {"measurement": "GI50", "setting": "NCI-H23", "result": "19 µM (inactive)"}, {"measurement": "GI50", "setting": "NCI-H522", "result": "18.5 µM (inactive)"}, {"measurement": "GI50", "setting": "OVCAR-3", "result": "20.8 µM (inactive)"}, {"measurement": "GI50", "setting": "OVCAR-8", "result": "20.3 µM (inactive)"}, {"measurement": "GI50", "setting": "RXF 393", "result": "14.2 µM (inactive)"}, {"measurement": "GI50", "setting": "SF-295", "result": "28.7 µM (inactive)"}, {"measurement": "GI50", "setting": "SK-MEL-28", "result": "17.7 µM (inactive)"}, {"measurement": "GI50", "setting": "SK-OV-3", "result": "40.8 µM (inactive)"}, {"measurement": "GI50", "setting": "SNB-19", "result": "25.4 µM (inactive)"}, {"measurement": "GI50", "setting": "UACC-257", "result": "24 µM (inactive)"}, {"measurement": "GI50", "setting": "UO-31", "result": "19.1 µM (inactive)"}]}, {"smiles": "COc1cc(CCc2ccc(N)cc2)cc(OC)c1OC", "values": [{"measurement": "GI50", "setting": "A549", "result": "51.6 µM (inactive)"}, {"measurement": "GI50", "setting": "CCRF-CEM", "result": "49.4 µM (inactive)"}, {"measurement": "GI50", "setting": "COLO 205", "result": "18.9 µM (inactive)"}, {"measurement": "GI50", "setting": "HOP-92", "result": "35.4 µM (inactive)"}, {"measurement": "GI50", "setting": "M14", "result": "54.6 µM (inactive)"}, {"measurement": "GI50", "setting": "MOLT-4", "result": "36.9 µM (inactive)"}, {"measurement": "GI50", "setting": "NCI-H23", "result": "92.3 µM (inactive)"}, {"measurement": "GI50", "setting": "NCI-H522", "result": "31.5 µM (inactive)"}, {"measurement": "GI50", "setting": "OVCAR-3", "result": "41.1 µM (inactive)"}, {"measurement": "GI50", "setting": "OVCAR-8", "result": "> 75.9 µM (inactive)"}, {"measurement": "GI50", "setting": "RXF 393", "result": "50.9 µM (inactive)"}, {"measurement": "GI50", "setting": "SF-295", "result": "12.2 µM (inactive)"}, {"measurement": "GI50", "setting": "SK-MEL-28", "result": "46 µM (inactive)"}, {"measurement": "GI50", "setting": "SK-OV-3", "result": "> 91.4 µM (inactive)"}, {"measurement": "GI50", "setting": "SNB-19", "result": "> 100 µM (inactive)"}, {"measurement": "GI50", "setting": "UACC-257", "result": "> 94.4 µM (inactive)"}, {"measurement": "GI50", "setting": "UO-31", "result": "> 45.3 µM (inactive)"}]}, {"smiles": "N#C/C(=C\\c1ccc(O)c(O)c1)C(N)=O", "values": [{"measurement": "GI50", "setting": "A549", "result": "46.2 µM (inactive)"}, {"measurement": "GI50", "setting": "CCRF-CEM", "result": "5.78 µM (inactive)"}, {"measurement": "GI50", "setting": "COLO 205", "result": "58.1 µM (inactive)"}, {"measurement": "GI50", "setting": "HOP-92", "result": "49.9 µM (inactive)"}, {"measurement": "GI50", "setting": "M14", "result": "55.6 µM (inactive)"}, {"measurement": "GI50", "setting": "MOLT-4", "result": "12.5 µM (inactive)"}, {"measurement": "GI50", "setting": "NCI-H23", "result": "34 µM (inactive)"}, {"measurement": "GI50", "setting": "NCI-H522", "result": "9.2 µM (inactive)"}, {"measurement": "GI50", "setting": "OVCAR-3", "result": "28.2 µM (inactive)"}, {"measurement": "GI50", "setting": "OVCAR-8", "result": "43.4 µM (inactive)"}, {"measurement": "GI50", "setting": "RXF 393", "result": "19.7 µM (inactive)"}, {"measurement": "GI50", "setting": "SF-295", "result": "39.1 µM (inactive)"}, {"measurement": "GI50", "setting": "SK-MEL-28", "result": "41 µM (inactive)"}, {"measurement": "GI50", "setting": "SK-OV-3", "result": "71.4 µM (inactive)"}, {"measurement": "GI50", "setting": "SNB-19", "result": "38.5 µM (inactive)"}, {"measurement": "GI50", "setting": "UACC-257", "result": "36 µM (inactive)"}, {"measurement": "GI50", "setting": "UO-31", "result": "31.8 µM (inactive)"}]}, {"smiles": "COC[C@H]1OC(=O)c2coc3c2[C@@]1(C)C1=C(C3=O)[C@@H]2CCC(=O)[C@@]2(C)C[C@H]1OC(C)=O", "note": "[WORTMANNIN]", "values": [{"measurement": "GI50", "setting": "A549", "result": "6.56 µM (inactive)"}, {"measurement": "GI50", "setting": "CCRF-CEM", "result": "1.38 µM (inactive)"}, {"measurement": "GI50", "setting": "COLO 205", "result": "10 µM (inactive)"}, {"measurement": "GI50", "setting": "M14", "result": "2.15 µM (inactive)"}, {"measurement": "GI50", "setting": "MOLT-4", "result": "2.09 µM (inactive)"}, {"measurement": "GI50", "setting": "NCI-H23", "result": "35.7 µM (inactive)"}, {"measurement": "GI50", "setting": "NCI-H522", "result": "13.8 µM (inactive)"}, {"measurement": "GI50", "setting": "NCI/ADR-RES", "result": "38.8 µM (inactive)"}, {"measurement": "GI50", "setting": "OVCAR-3", "result": "4.65 µM (inactive)"}, {"measurement": "GI50", "setting": "OVCAR-8", "result": "25 µM (inactive)"}, {"measurement": "GI50", "setting": "PC-3", "result": "0.598 µM (active)"}, {"measurement": "GI50", "setting": "SF-295", "result": "2.96 µM (inactive)"}, {"measurement": "GI50", "setting": "SK-MEL-28", "result": "7.45 µM (inactive)"}, {"measurement": "GI50", "setting": "SNB-19", "result": "6.38 µM (inactive)"}, {"measurement": "GI50", "setting": "UACC-257", "result": "2.95 µM (inactive)"}, {"measurement": "GI50", "setting": "UO-31", "result": "0.665 µM (active)"}]}, {"smiles": "O=c1c2ccccc2c(=O)c2c1c1[nH]c3ccccc3c1c1c(=O)c3ccccc3c(=O)c21", "values": [{"measurement": "GI50", "setting": "A549", "result": "> 100 µM (inactive)"}, {"measurement": "GI50", "setting": "CCRF-CEM", "result": "94 µM (inactive)"}, {"measurement": "GI50", "setting": "COLO 205", "result": "> 100 µM (inactive)"}, {"measurement": "GI50", "setting": "HOP-92", "result": "> 100 µM (inactive)"}, {"measurement": "GI50", "setting": "M14", "result": "> 100 µM (inactive)"}, {"measurement": "GI50", "setting": "MOLT-4", "result": "> 100 µM (inactive)"}, {"measurement": "GI50", "setting": "NCI-H23", "result": "> 100 µM (inactive)"}, {"measurement": "GI50", "setting": "NCI-H522", "result": "> 100 µM (inactive)"}, {"measurement": "GI50", "setting": "OVCAR-3", "result": "> 100 µM (inactive)"}, {"measurement": "GI50", "setting": "OVCAR-8", "result": "> 100 µM (inactive)"}, {"measurement": "GI50", "setting": "RXF 393", "result": "> 100 µM (inactive)"}, {"measurement": "GI50", "setting": "SF-295", "result": "> 100 µM (inactive)"}, {"measurement": "GI50", "setting": "SK-MEL-28", "result": "> 100 µM (inactive)"}, {"measurement": "GI50", "setting": "SK-OV-3", "result": "> 100 µM (inactive)"}, {"measurement": "GI50", "setting": "SNB-19", "result": "> 100 µM (inactive)"}, {"measurement": "GI50", "setting": "UACC-257", "result": "> 100 µM (inactive)"}, {"measurement": "GI50", "setting": "UO-31", "result": "> 100 µM (inactive)"}]}]}
